Columns and labels:
[1] = test system: influenza virus A/PR8/34, subtype H1N1 (virus PR8); experiment: Replication of influenza virus PR8 in MDCK cells, virus released in supernatant titrated as haemagglutinating units; format: cell-based
[2] = test system: influenza virus PR8 viral proteins (H0-H1, H2, M, NP, P); experiment: Synthesis of viral proteins in infected MDCK cells by Western blotting; format: cell-based, influenza virus A/PR8/34, subtype H1N1; conditions: 15 and 20 μg/ml
Method: Viral proteins were analysed by Western blotting. At different times after viral infection, the cells were lysed using special lysis buffers. Equal quantities of proteins were then loaded onto polyacrylamide gel in SDS. After electrophoresis, the proteins were transferred onto a nitrocellulose membrane and treated with anti-influenza polyclonal antibody. After incubation and suitable washings, the filters were treated with a second antibody conjugated to peroxidase and the viral proteins were highlighted by means of the chemiluminescence technique (ECL), using a peroxidase substrate (luminol) which, on reacting with the enzyme, emits a light and makes an impression on the autoradiography plate. The cells were treated with resveratrol at various concentrations (5, 10, 15 and 20 μg/ml). To allow better imaging of the viral proteins, the electrophoresis run was done using a 10% polyacrylamide gel (FIG. 7A) and gradient gel (FIG. 7B).

[3] = test system: mRNAs for the viral proteins HA and M; experiment: PCR for messenger RNAs of late viral proteins in infected MDCK cells; format: cell-based, influenza virus A/PR8/34, subtype H1N1
viral proteins NP and M = experiment: Localisation of proteins NP and M in infected MDCK cells by immunofluorescence; format: cell-based, influenza virus A/PR8/34, subtype H1N1; conditions: 20 μg/ml
Method: Viral replication was also assessed with analysis of the occurrence of viral antigens on the surface of the infected cell by means of immunofluorescence. Analysis of viral proteins by immunofluorescence was done with a fluorescence microscope using a filter emitting in the green (FITC) (lens 100×). MDCK cells, cultured on cover slides for 24 h were infected and, 18 h after infection, were fixed with methanol-acetone 1:1 at 4° C. for 15 min. Later, the cells were washed twice in PBS and permeabilised with a 0.1% solution of PBS-TRITON for 5 min. Blockade of the aspecific sites was done with 1% milk dissolved in PBS for 30 min at ambient temperature. Later, specific monoclonal antibodies (mouse anti-influenza NP and mouse anti-influenza M) to viral proteins were added, diluted 1:50 in PBS for 30 min at ambient temperature. The primary antibody was detected with a secondary antibody conjugated to fluorescein (anti-mouse FITC, Sigma). […]

MDCK cells [4] = experiment: Assay of intracellular glutathione (GSH) in MDCK cells by HPLC; format: cell-based, dog
Method: The glutathione assay has been performed as a result of the formation of S-carboxymethyl-derivatives of free thiols with iodoacetic acid followed by conversion of the NH2 terminal groups to 2,4-dinitrophenyl derivatives after the reaction of 1-fluoro-2,4-dinitrobenzene (Anal. Biochemn., 106, 55-62, 1980).
The MDCK cells were detached by means of the scraping technique. Later, the cells were centrifuged at 1,200 rpm for 5 minutes. The cells were washed twice in PBS and the precipitate, obtained after centrifuging, was resuspended in 200 μl of buffer. The cell lysates, obtained with repeated cycles of freezing and thawing, were deproteinised by means of precipitation in 5% metaphosphoric acid. After centrifuging at 22,300 g, the low-molecular-weight thiols present in the supernatant were derivatised with 10% iodoacetic acid v/v and neutralised with NaHCO3 in powder form. After 1 h of incubation in the dark a solution of 1.5% 1-chloro-2,4-dinitrobenzene v/v was added (1.5 ml/98.5 ml of absolute ethanol). […] The protein concentration was calculated using the Lowry method (Biol. Chem., 193, 265-75, 1951). […] The reducing reaction product is detected by the formation of stained compounds by reaction with the aromatic amino acids of the proteins. […]

MDCK cells [5] = experiment: Apoptosis in MDCK cells by FACS after labelling with propidium iodide; format: cell-based, dog; conditions: for apoptosis: antiviral doses of the drug
Method: As regards the analysis of apoptosis. MDCK cells were infected with the virus PR8. After viral adsorption, the cells were treated with resveratrol at various concentrations (5, 10, 15 and 20 μg/ml). Twenty-four hours after infection, the cells were detached using a 0.25% trypsin solution and then centrifuged at 1,200 rpm for 5 min, The precipitate thus obtained was analysed by means of the FACS technique after labelling with propidium iodide.
For the purposes of assessing whether the induction of cell death by apoptosis was involved in the antiviral effect of reservatrol, MDCK cells were infected or not with the virus and treated with the substance at the various concentrations. Cell death by apoptosis was evaluated by FACS after labelling with propidium iodide. […] The infection in itself induced apoptosis in 12% of infected cells. Although the addition of increasing doses caused an increase in the mortality, no significant difference was observed between infected cells and uninfected cells treated with antiviral doses of the drug (35 and 37% apoptosis, respectively).

influenza virus A/PR = experiment: Survival of mice infected intranasally with influenza virus A/PR; format: in vivo, Balb/c AnCrIBR mice; conditions: 1 mg/kg, intraperitoneal, daily for 7 days
Method: Four-week-old female inbred Balb/c AnCrIBR mice were used. Resveratrol, dissolved in PBS, was administered to the animals via the intraperitoneal route at various times after infection with the influenza virus. The reservatrol concentrations were chosen so as to obtain a range of doses in the animals' blood similar to the effective range in vitro (10 to 20 μg/ml).
The mice were inoculated intranasally (i.n.) with a suspension containing the influenza virus A/PR at a multiplicity of infection of 2 HAU/mouse, after light anaesthesia with ether. On the basis of previous experimental data, the influenza virus at this multiplicity of infection produces haemorrhagic pneumonia that leads to the death of 80% of the animals by one week after infection. For the purposes of monitoring the infection trend, both virological and immunological parameters were monitored in addition to studying survival curves.
The efficacy of resveratrol was studied in an experimental influenza virus infection model in the mouse. In this model, intranasal inoculation of the virus causes severe haemorrhagic pneumonia which leads to the death of the animals within 7 to 10 days of infection. The experimental design envisages evaluation of the therapeutic efficacy of the study substance, as assessed on the basis of survival of the infected animals. […]

MDCK cells [6] = experiment: Toxicity of resveratrol on confluent monolayers of uninfected MDCK cells (cell count, Trypan Blue viability)
Method: The cells were cultured in T-25 vials or in 6- and 24-well Libno plates in RPMI culture medium added with L-glutamine, penicillin-streptomycin and 10% foetal calf serum (FCS) and maintained at 37° C. in a 5% CO2 atmosphere. The confluent cell monolayers were detached with a 0.25% trypsin solution, centrifuged and reseeded in fresh medium. The cell count was done using a haemocytometer and cell viability was determined by means of exclusion with Trypan Blue viability staining (0.02%).
For the purposes of determining the possible degree of toxicity on the MDCK cells, the latter were treated with resveratrol after the confluence of the monolayer, at various concentrations (5, 10, 15, 20 and 40 μg/ml).

3,4,5-trihydroxystilbene [resveratrol] was tested, and the “time of addition after infection at which viral replication was significantly inhibited” value ([1]; 20 μg/ml, added 0, 3, 6 and 9 h after infection, HAU/ml 24 h after infection) was no more than 3 h, the “duration of treatment needed for inhibition of replication” value ([1]; 20 μg/ml, added immediately after infection, removed at 0, 3, 6, 9 and 24 h) was “at least 9 hours” and the “reduction of viral titre compared to infected and untreated controls” value ([1]; 20 μg/ml, added post-infection, MDCK cells, 0.2 m.o.i.) was 87%. The “viral replication after 24 h, treatment only during viral adsorption” value ([1]; 20 μg/ml, for one hour at 37° C. during adsorption, then removed) was “comparable to the replication obtained in the control cells”, the viral replication ([1]; 40 μg/ml) was “viral replication was completely blocked” and the “viral replication, dose dependence” value ([1]; added post-infection, 1-40 μg/ml, HAU 24 and 48 h after infection) was “inhibited viral replication in a dose-dependent manner”. The “reversibility of antiviral activity” value ([1]; on discontinuing the treatment) was “not reversible on discontinuing the treatment”, the “viral replication after direct incubation of the virus with the substance” value ([1]; virus incubated with 40 μg/ml for one hour at 37° C., diluted 1:500, then used for infecting cells) was “no reduction in viral replication was observed” and the “expression of early nucleocapside proteins (NP and P)” value [2] was “inhibited, though to a lesser extent than that of the late proteins”. For the same substance, the “synthesis of late haemoagglutinin (H0-H1, H2) and matrix proteins (M)” value [2] was “almost totally inhibited”, the “release of messenger RNAs for the late viral proteins (HA and M)” value ([3]; 20 μg/ml, evaluated 8 hours after infection) was “causes a delay in the release of messenger RNAs” and the “synthesis of the mRNAs for HA and M” value ([3]; 20 h after infection) was “not affected by treatment with resveratrol”. For the same substance, the “localisation of protein NP” value (viral proteins NP and M) was “the NP is retained in the nucleus”, the “protein M expression” value (viral proteins NP and M) was “significantly inhibited” and the “GSH levels in infected cells” value (MDCK cells [4]; infected MDCK cells, 24 h after infection) was “did not restore the GSH levels reduced by the infection”. For the same substance, the “intracellular GSH levels compared to untreated cells” value (MDCK cells [4]; uninfected MDCK cells) was “produced a reduction in intracellular GSH levels”, the apoptosis (MDCK cells [5]; infected cells) was 35% and the “cell death by apoptosis” value (MDCK cells [5]; uninfected cells, 5 μg/ml) was 8%. For the same substance, the “cell death by apoptosis” value (MDCK cells [5]; uninfected cells, 20 μg/ml) was 32%, the apoptosis (MDCK cells [5]; uninfected cells) was 37% and the “mortality versus untreated animals” value (influenza virus A/PR) was “significantly reduced the mortality”. The “animals that survived the infection” value (influenza virus A/PR; 2 HAU/mouse i.n.) was 60%, the “toxic effects on uninfected cells” value (MDCK cells [6]; 20 μg/ml) was “without any toxic effects on the uninfected cells being detected” and the “toxic effects / cell mortality” value (MDCK cells [6]; 40 μg/ml) was “toxic effects were observed with an increase in cell mortality”. For the same substance, the “morphological alterations of the cells” value (MDCK cells [6]; 10-20 μg/ml) was “no morphological alterations of the cells were observed” and the cell number (MDCK cells [6]; 10-20 μg/ml, confluent monolayer, uninfected) was “a slight reduction in cell number was observed”.

Reference: patent US8431617B2, “Use of resveratrol for the preparation of a medicament useful for the treatment of influenza virus infections” (Sigma-Tau Industrie Farmaceutiche Riunite S.p.A., priority 2002, dated 2013)
